Measurements from patent publication US5032576A, “Method for controlling female moths using a peptide” (The United States of America as represented by the …, priority 1989, dated 1991).
Like-named read-outs stand apart in the source and are kept apart here. Where a SMILES comes first, the peptide text is derived from it.

How the values were obtained:
[1] = system: ligated H. zea females; experiment: Pheromone production bioassay: injection into ligated H. zea females; assay type: in vivo, Heliothis zea; conditions: for ng/Female H. zea (Z)-11-Hexadecenal: injected into ligated females
[2] = system: D. nitidalis (pickle worm); conditions: (E)-11-hexadecenal per female ± SE, N = 5; 5 pmoles injected
Procedure: (§1) Bioassay procedure is described in Example 6. Each female was injected
(§2) of the synthetic peptide in 10 microliter of buffer. The major component
(§3) Dose response of the peptide of Formula I, wherein X is Asp and Y is Leu(NH2): the peptide was dissolved in sucrose phosphate buffer and injected into ligated 3-day-old females during scotophase. Pheromone was extracted 3 hr after injection and quantified by capillary gas chromatography.

[3] = system: H. virescens (tobacco budworm); conditions: (Z)-11-hexadecenal per female ± SE, N = 5; 5 pmoles injected
Procedure: as §1, §2, §3

[4] = system: L. dispar (gypsy moth); conditions: cis-2-decyl-3-(5-methylhexyl) oxirane per female ± SE, N = 5; 5 pmoles injected
Procedure: as §1, §2, §3

[5] = system: M. sexta (tobacco hornworm); conditions: (E,Z)-10,12-hexadecadienal per female ± SE, N = 5; 5 pmoles injected
Procedure: as §1, §2, §3

[6] = system: O. nubilalis (European corn borer); conditions: (E)-11-tetradecen-1-ol acetate per female ± SE, N = 5; 5 pmoles injected
Procedure: as §1, §2, §3

[7] = system: S. frugiperda (fall armyworm); conditions: per female ± SE, N = 5; 5 pmoles injected
Procedure: as §1, §2, §3

[8] = system: third instar H. zea larvae
Procedure: Peptide of the Formula I, wherein X is Asp and Y is Leu(NH2) was dissolved in sucrose phosphate buffer and serially diluted to obtain 0.1, 1.0, 10, 100, and 1000 pmoles/5 μL of buffer. The peptide was then injected into third instar H. zea larvae the day before their moult to fourth instar. Observations for melanization (intense black color formation) were recorded after 48 hr.

[9] = system: ligated females of six other species of moths
Procedure: as §1, §2

SMILES	ng/Female H. zea (Z)-11-Hexadecenal ([1]; Dose 1.0 pMole)	ng/Female H. zea (Z)-11-Hexadecenal ([1]; Dose 10.0 pMole)	ng/Female H. zea (Z)-11-Hexadecenal ([1]; Dose 100.0 pMole)	pheromone production at doses greater than 4.0 pmoles ([1]; doses greater than 4.0 pmoles)	production of the sex pheromone ([1]; injected into ligated H. zea females)	Quantity of the Major Component in the Pheromone of Hex-PBAN injected Female [2]	Quantity of the Major Component in the Pheromone of Hex-PBAN injected Female [3]	Quantity of the Major Component in the Pheromone of Hex-PBAN injected Female [4]	Quantity of the Major Component in the Pheromone of Hex-PBAN injected Female [5]	Quantity of the Major Component in the Pheromone of Hex-PBAN injected Female [6]	Quantity of the Major Component in the Pheromone of Hex-PBAN injected Female [7]	melanization ([8]; 10 pmole dose, recorded after 48 hr)	melanization ([8]; 10 pmoles/larva, after the moult to the fourth instar)	mortality ([8]; 10 pmoles/larva, associated with melanization)	quantity of pheromone produced relative to that found in normal females ([9]; in two of the six species)	production of their respective pheromones ([9]; injected into ligated females of six other species)	ng/Female H. zea (Z)-11-Hexadecenal ([1]; Dose 1000.0 pMole)
CC[C@H](C)[C@H](NC(=O)[C@H](CCC(N)=O)NC(=O)[C@H](CCC(=O)O)NC(=O)[C@@H]1CCCN1C(=O)[C@H](CC(=O)O)NC(=O)[C@H](CCC(N)=O)NC(=O)[C@H](CCCNC(=N)N)NC(=O)[C@H](Cc1ccc(O)cc1)NC(=O)[C@H](CCSC)NC(=O)[C@H](CCC(=O)O)NC(=O)[C@H](CCC(N)=O)NC(=O)[C@H](CC(=O)O)NC(=O)[C@H](C)NC(=O)[C@@H]1CCCN1C(=O)[C@@H](NC(=O)[C@H](C)NC(=O)[C@@H]1CCCN1C(=O)[C@H](CCSC)NC(=O)[C@H](CC(=O)O)NC(=O)[C@H](CC(=O)O)NC(=O)[C@H](CO)NC(=O)[C@@H](N)CC(C)C)[C@@H](C)O)C(=O)N[C@@H](CC(=O)O)C(=O)N[C@@H](CO)C(=O)N[C@@H](CCCNC(=N)N)C(=O)N[C@H](C(=O)N[C@@H](CCCCN)C(=O)N[C@@H](Cc1ccc(O)cc1)C(=O)N[C@@H](Cc1ccccc1)C(=O)N[C@@H](CO)C(=O)N1CCC[C@H]1C(=O)N[C@@H](CCCNC(=N)N)C(=O)N[C@@H](CC(C)C)C(N)=O)[C@@H](C)O [Compound 1] (H-LSDDMPATPADQEMYRQDPEQIDSRTKYFSPRL-NH2)	4.6 ng/Female	128.2 ng/Female	179.9 ng/Female	significant decrease	normal production	49.2 ± 16.3 ng	189.2 ± 12.2 ng	2.5 ± 0.4 ng	65.4 ± 11.9 ng	6.7 ± 1.1 ng	42.9 ± 12.2 ng	100%	intense melanization	significant mortality	6-7 times	significant amounts	
CC[C@H](C)[C@H](NC(=O)[C@H](CCC(N)=O)NC(=O)[C@H](CCC(=O)O)NC(=O)[C@@H]1CCCN1C(=O)[C@H](CC(=O)O)NC(=O)[C@H](CCC(N)=O)NC(=O)[C@H](CCCNC(=N)N)NC(=O)[C@H](Cc1ccc(O)cc1)NC(=O)[C@H](CCSC)NC(=O)[C@H](CCC(=O)O)NC(=O)[C@H](CCC(N)=O)NC(=O)[C@H](CC(=O)O)NC(=O)[C@H](C)NC(=O)[C@@H]1CCCN1C(=O)[C@@H](NC(=O)[C@H](C)NC(=O)[C@@H]1CCCN1C(=O)[C@H](CCSC)NC(=O)[C@H](CC(=O)O)NC(=O)[C@H](CC(=O)O)NC(=O)[C@H](CO)NC(=O)[C@@H](N)CC(C)C)[C@@H](C)O)C(=O)N[C@@H](CC(N)=O)C(=O)N[C@@H](CO)C(=O)N[C@@H](CCCNC(=N)N)C(=O)N[C@H](C(=O)N[C@@H](CCCCN)C(=O)N[C@@H](Cc1ccc(O)cc1)C(=O)N[C@@H](Cc1ccccc1)C(=O)N[C@@H](CO)C(=O)N1CCC[C@H]1C(=O)N[C@@H](CCCNC(=N)N)C(=O)N[C@@H](CC(C)C)C(N)=O)[C@@H](C)O [Compound 3] (H-LSDDMPATPADQEMYRQDPEQINSRTKYFSPRL-NH2)	1.7 ng/Female	97.1 ng/Female	145.7 ng/Female														
CC[C@H](C)[C@H](NC(=O)[C@H](CCC(N)=O)NC(=O)[C@H](CCC(=O)O)NC(=O)[C@@H]1CCCN1C(=O)[C@H](CC(=O)O)NC(=O)[C@H](CCC(N)=O)NC(=O)[C@H](CCCNC(=N)N)NC(=O)[C@H](Cc1ccc(O)cc1)NC(=O)[C@H](CCSC)NC(=O)[C@H](CCC(=O)O)NC(=O)[C@H](CCC(N)=O)NC(=O)[C@H](CC(=O)O)NC(=O)[C@H](C)NC(=O)[C@@H]1CCCN1C(=O)[C@@H](NC(=O)[C@H](C)NC(=O)[C@@H]1CCCN1C(=O)[C@H](CCSC)NC(=O)[C@H](CC(=O)O)NC(=O)[C@H](CC(=O)O)NC(=O)[C@H](CO)NC(=O)[C@@H](N)CC(C)C)[C@@H](C)O)C(=O)N[C@@H](CC(N)=O)C(=O)N[C@@H](CO)C(=O)N[C@@H](CCCNC(=N)N)C(=O)N[C@H](C(=O)N[C@@H](CCCCN)C(=O)N[C@@H](Cc1ccc(O)cc1)C(=O)N[C@@H](Cc1ccccc1)C(=O)N[C@@H](CO)C(=O)N1CCC[C@H]1C(=O)N[C@@H](CCCNC(=N)N)C(=O)N[C@@H](CC(C)C)C(=O)O)[C@@H](C)O [Compound 4] (H-LSDDMPATPADQEMYRQDPEQINSRTKYFSPRL-OH)		0.9 ng/Female	3.2 ng/Female														112.1 ng/Female
